Measured values reported in patent publication US20210008070A1, “TARGETING MINIMAL RESIDUAL DISEASE IN CANCER WITH CD36 ANTAGONISTS” (VIB VZW, priority 2018, published 2021).

How the values were obtained:
[1] = test system: GFRA2-positive MEL006 cells; assay: FACS of GFRA2-positive cells in MEL006 cultures
Method: Cells were resuspended in FACS sorting buffer (culture medium supplied with 1% EDTA 100 mM).

[2] = test system: MM52 cells; assay: Colony assay / Cell Titer Glo in short-term melanoma culture MM52; format: cell-based, human
Method: D) Colony assay performed over 7 days.
E) and Cell Titer Glo assay performed after 6 days after incubation of the short culture melanoma line MM052 with MEK inhibitor trametinib (TRA; […]; 1 uM), FAK inhibitor PF-562271 (1 uM) and RXRG antagonist HX531 (2 uM)
Cells were grown to near confluency on 12well plates and treated with the indicated drug combinations for the indicated time period. Cells were washed once with PBS, stained with crystal violet (1% crystal violet w/v, 35% methanol v/v) for 15 min, washed with PBS and destained in tap water.
1.15. Cell Titer Glo 2500 cells were plated onto a 96 well plate and treated with the indicated drug combinations for the indicated time period. Cell Titer Glo assay was performed according to the manufacturer's instruction (Promega) and luminescence was measured on a VictorX3 (Perkin Elmer).

[3] = test system: RAR receptors; settings: cited from earlier work

## CN1c2ccc([N+](=O)[O-])cc2N=C(c2ccc(C(=O)O)cc2)c2cc3c(cc21)C(C)(C)CCC3(C)C [HX531]
[1]; with IC50 concentrations of BRAF and MEK-inhibitors
  drug-dependent induction of GFRA2-positive cells: completely inhibited emergence
[2]; HX531 plus trametinib
  sensitivity of MM52 cells to trametinib: sensitized these cells to trametinib

## CN(c1ncccc1CNc1nc(Nc2ccc3c(c2)CC(=O)N3)ncc1C(F)(F)F)S(C)(=O)=O [PF-562271]
[1]; added to DT
  drug-dependent emergence of the GFRA2-high cell population: diminished the drug-dependent emergence of the GFRA2-high cell population in a dose-dependent manner

## CC1(C)CCC(C)(C)c2cc(C3(c4ccc(C(=O)O)cc4)OCCO3)ccc21 [SR 11237]
[3]
  RAR activity: devoid of any RAR activity

## C=C(c1ccc(C(=O)O)cc1)c1cc2c(cc1C)C(C)(C)CCC2(C)C [bexarotene]
[2]; alone
  long-term growth inhibition: did not induce measurable long-term growth inhibition
[2]; bexarotene added
  sensitivity to a combination of trametinib/FAK-inhibitors: increased the sensitivity
[2]; bexarotene at concentrations as low as 10 nM
  sensitivity of MM52 cells to trametinib: significantly decreased the sensitivity
[2]; bexarotene with trametinib/FAK-inhibitors, after 3 days of treatment
  cells with cell death: ~100%
